Assay type in all cases: biochemical
One test has as its target T1, TYK2 (h) (Homo sapiens, UniProt P29597).
T1 construct: purchased Millipore UK Ltd (assays performed there as a service)
The test can be described thus: TYK2 (h) kinase assay. The conditions noted are these: [γ-33P-ATP] 10 μM or KM values; 40 minutes at room temperature. On the procedure:
(§1) Kinase assays can be performed by measurement of incorporation of γ-^33P ATP into immobilized myelin basic protein (MBP). High binding white 384 well plates (Greiner) are coated with MBP (Sigma # M-1891) by incubation of 60 μL well of 20 μg/mL MBP in Tris-buffered saline (TBS; 50 mM Tris pH 8.0, 138 mM NaCl, 2.7 mM KCl) for 24 h at 4° C. Plates are washed 3× with 100 μL TBS. Kinase reactions are carried out in a total volume of 34 μL in kinase buffer (according to the need to make, for example, 5 mM Hepes pH 7.6, 15 mM NaCl, 0.01% bovine gamma globulin (Sigma #1-5506), 10 mM MgCl2, 1 mM DTT, 0.02% TritonX-100). Compound dilutions are performed in DMSO and added to assay wells to a final DMSO concentration of 1%. Each data point is measured in duplicate, and at least two duplicate assays are performed for each individual compound determination. Enzyme is added to final concentrations of 10 nM or 20 nM, for example. A mixture of unlabeled ATP and γ-^33P ATP is added to start the reaction (2×10^6 cpm of γ-^33P ATP per well (3000 Ci/mmole) and 10 μM unlabeled ATP, typically. The reactions are carried out for 1 hour at room temperature with shaking. Plates are washed 7× with TBS, followed by the addition of 50 μL well scintillation fluid (Wallac). Plates are read using a Wallac Trilux counter. This is only one format of such assays; various other formats are possible, as known to one skilled in the art.
(§2) The above assay procedure can be used to determine the IC50 for inhibition and/or the inhibition constant, Ki. […] The IC50 value is estimated by preparing a 10 point curve using a ½ log dilution series (for example, a typical curve may be prepared using the following compound concentrations: 3 μM, 1 μM, 0.3 μM, 0.1 μM, 0.03 μM, 0.01 μM, 0.003 μM, 0.001 μM, 0.0003 μM and 0 μM).
TYK2 (h) is incubated with 8 mM MOPS pH 7.0, 0.2 mM EDTA, 250 μM […], 10 mM MgAcetate and [γ-^33P-ATP] […] The reaction is initiated by the addition of the MgATP mix. After incubation for 40 minutes at room temperature, the reaction is stopped by the addition of 3% phosphoric acid solution. 10 μL of the reaction is then spotted onto a P30 filtermat and washed three times for 5 minutes in 75 mM phosphoric acid and once in methanol prior to drying and scintillation counting.
(§3) The kinase assays described herein were performed at Millipore UK Ltd, Dundee Technology Park, Dundee DD2 1SW, UK.

A further test addresses T2, Aurora-A (h) (Homo sapiens, UniProt O14965).
T2 construct: purchased Millipore UK Ltd (assays performed there as a service)
T2 sequence (O14965 1-403): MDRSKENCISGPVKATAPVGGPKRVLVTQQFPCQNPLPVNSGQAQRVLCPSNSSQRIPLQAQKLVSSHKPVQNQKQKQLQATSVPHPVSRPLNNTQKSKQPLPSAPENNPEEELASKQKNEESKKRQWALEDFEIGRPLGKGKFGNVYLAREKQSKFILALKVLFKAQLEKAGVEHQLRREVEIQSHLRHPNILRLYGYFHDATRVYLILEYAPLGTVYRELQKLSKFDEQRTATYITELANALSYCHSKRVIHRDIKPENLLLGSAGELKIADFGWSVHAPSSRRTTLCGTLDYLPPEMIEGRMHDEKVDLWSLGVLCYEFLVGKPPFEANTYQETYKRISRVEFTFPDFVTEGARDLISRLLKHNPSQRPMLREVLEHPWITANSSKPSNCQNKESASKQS
The test is described as follows: Aurora-A (h) kinase assay. As to conditions: [γ-33P-ATP] 10 μM or KM values; 40 minutes at room temperature. On the procedure: as §2
Aurora-A (h) is incubated with 8 mM MOPS pH 7.0, 0.2 mM EDTA, 200 μM LRRASLG (Kemptide), 10 mM MgAcetate and [γ-^33P-ATP] […] The reaction is initiated by the addition of the MgATP mix. After incubation for 40 minutes at room temperature, the reaction is stopped by the addition of 3% phosphoric acid solution. 10 μL of the reaction is then spotted onto a P30 filtermat and washed three times for 5 minutes in 75 mM phosphoric acid and once in methanol prior to drying and scintillation counting.
as §3

Another test deals with T3, Aurora-B (h) (Homo sapiens, UniProt Q96GD4).
T3 construct: purchased Millipore UK Ltd (assays performed there as a service)
The test is described as follows: Aurora-B (h) kinase assay. As to conditions: [γ-33P-ATP] 10 μM or KM values; 40 minutes at room temperature. On the procedure: as §2
Aurora-B (h) is incubated with 8 mM MOPS pH 7.0, 0.2 mM EDTA, 30 μM […], 10 mM MgAcetate and [γ-^33PATP] […] The reaction is initiated by the addition of the MgATP mix. After incubation for 40 minutes at room temperature, the reaction is stopped by the addition of a 3% phosphoric acid solution. 10 μL of the reaction is then spotted onto a P30 filtermat and washed three times for 5 minutes in 75 mM phosphoric acid and once in methanol prior to drying and scintillation counting.
as §3

The target in the next test is T4, FLT4 (h) (Homo sapiens, UniProt P35916).
T4 construct: purchased Millipore UK Ltd (assays performed there as a service)
The test is described as follows: FLT4 (h) kinase assay. The conditions noted are these: [γ-33P-ATP] 10 μM or KM values; cells tagged (Flt4); read-out: IC50 (Flt4), printed in the FLT3 (h) column. On the procedure:
as §1, §2
FLT4 (h) is incubated with 8 mM MOPS pH 7.0, 0.2 mM EDTA, 50 μM […], 10 mM MgAcetate and [γ-^33P-ATP] […] The reaction is initiated by the addition of the MgATP mix. After incubation for 40 minutes at room temperature, the reaction is stopped by the addition of 3% phosphoric acid solution. 10 μL of the reaction is then spotted onto a P30 filtermat and washed three times for 5 minutes in 75 mM phosphoric acid and once in methanol prior to drying and scintillation counting.
as §3

One may read the IC50 as the concentration needed to halve the response being measured.

T4 sequence (P35916 25-1363): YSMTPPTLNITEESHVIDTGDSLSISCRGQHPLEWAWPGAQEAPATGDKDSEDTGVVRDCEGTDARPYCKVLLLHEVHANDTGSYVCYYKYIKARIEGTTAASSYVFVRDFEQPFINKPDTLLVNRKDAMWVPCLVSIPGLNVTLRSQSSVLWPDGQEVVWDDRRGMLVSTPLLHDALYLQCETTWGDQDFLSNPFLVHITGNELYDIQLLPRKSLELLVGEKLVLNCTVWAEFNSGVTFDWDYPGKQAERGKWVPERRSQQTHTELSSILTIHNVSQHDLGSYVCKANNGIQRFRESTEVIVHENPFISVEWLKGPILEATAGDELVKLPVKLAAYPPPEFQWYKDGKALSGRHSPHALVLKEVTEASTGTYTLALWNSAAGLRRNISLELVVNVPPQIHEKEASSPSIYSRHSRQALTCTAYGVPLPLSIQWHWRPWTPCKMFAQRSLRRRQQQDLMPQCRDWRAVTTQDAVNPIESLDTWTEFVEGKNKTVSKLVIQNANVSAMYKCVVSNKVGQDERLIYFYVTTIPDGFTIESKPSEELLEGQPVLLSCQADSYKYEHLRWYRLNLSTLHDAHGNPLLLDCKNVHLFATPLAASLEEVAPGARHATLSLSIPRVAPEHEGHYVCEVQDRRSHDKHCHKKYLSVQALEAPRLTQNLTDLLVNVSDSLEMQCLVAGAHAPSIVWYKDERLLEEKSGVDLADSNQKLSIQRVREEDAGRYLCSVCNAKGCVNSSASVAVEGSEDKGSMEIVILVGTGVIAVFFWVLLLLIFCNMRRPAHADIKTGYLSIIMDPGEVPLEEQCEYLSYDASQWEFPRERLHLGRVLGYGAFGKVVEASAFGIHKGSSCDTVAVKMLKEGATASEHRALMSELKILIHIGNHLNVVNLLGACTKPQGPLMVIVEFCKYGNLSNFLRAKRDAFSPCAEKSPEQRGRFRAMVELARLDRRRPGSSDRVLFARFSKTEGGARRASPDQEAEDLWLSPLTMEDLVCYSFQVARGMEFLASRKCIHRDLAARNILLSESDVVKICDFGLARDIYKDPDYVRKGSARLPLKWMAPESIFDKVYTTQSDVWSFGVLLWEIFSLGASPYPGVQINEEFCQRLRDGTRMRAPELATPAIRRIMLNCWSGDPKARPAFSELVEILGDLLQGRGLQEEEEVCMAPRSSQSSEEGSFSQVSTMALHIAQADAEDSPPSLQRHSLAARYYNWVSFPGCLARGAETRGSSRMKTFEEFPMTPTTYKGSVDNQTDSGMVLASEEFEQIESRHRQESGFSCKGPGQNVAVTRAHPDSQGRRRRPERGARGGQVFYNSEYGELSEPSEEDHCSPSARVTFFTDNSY
T1 sequence (P29597 whole entry): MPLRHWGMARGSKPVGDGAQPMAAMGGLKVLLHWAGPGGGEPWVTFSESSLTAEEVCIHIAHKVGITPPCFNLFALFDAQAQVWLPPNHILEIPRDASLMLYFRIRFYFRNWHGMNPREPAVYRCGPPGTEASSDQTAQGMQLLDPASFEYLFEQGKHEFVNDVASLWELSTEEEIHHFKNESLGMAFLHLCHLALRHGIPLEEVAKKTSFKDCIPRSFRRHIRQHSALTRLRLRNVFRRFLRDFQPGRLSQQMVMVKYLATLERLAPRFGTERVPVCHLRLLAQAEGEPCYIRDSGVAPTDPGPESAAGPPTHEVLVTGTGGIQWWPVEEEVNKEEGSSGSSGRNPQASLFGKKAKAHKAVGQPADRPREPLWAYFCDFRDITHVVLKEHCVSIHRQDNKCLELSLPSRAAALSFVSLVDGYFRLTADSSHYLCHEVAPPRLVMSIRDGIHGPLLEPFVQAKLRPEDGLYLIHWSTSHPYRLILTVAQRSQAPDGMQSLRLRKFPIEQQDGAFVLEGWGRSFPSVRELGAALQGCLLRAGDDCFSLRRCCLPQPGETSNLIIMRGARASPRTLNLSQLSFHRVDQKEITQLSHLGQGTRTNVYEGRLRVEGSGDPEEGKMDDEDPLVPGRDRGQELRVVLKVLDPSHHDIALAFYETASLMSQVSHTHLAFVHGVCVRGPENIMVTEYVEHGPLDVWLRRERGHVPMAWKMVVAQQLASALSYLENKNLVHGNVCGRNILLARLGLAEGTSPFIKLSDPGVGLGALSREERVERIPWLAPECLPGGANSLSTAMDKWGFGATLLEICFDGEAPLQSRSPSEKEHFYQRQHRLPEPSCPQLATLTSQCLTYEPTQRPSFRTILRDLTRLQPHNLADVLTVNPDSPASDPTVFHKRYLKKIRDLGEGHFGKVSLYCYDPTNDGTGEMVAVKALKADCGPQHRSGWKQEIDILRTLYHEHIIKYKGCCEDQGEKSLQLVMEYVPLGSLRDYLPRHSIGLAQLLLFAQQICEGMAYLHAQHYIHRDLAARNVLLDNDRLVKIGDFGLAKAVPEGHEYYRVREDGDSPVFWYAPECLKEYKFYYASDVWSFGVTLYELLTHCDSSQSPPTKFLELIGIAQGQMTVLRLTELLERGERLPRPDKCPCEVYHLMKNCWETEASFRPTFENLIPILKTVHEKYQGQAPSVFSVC
T3 sequence (Q96GD4 whole entry): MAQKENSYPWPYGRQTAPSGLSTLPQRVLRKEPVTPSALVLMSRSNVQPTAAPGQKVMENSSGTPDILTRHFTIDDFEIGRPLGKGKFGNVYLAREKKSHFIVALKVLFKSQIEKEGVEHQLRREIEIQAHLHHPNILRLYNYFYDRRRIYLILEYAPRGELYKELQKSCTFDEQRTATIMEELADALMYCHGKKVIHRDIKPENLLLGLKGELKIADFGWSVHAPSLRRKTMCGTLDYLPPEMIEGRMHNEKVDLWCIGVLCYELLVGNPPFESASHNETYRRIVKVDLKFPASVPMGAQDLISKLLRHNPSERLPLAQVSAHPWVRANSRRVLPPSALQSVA

Consider `Cc1nc2cc(Nc3ncc(Cl)c(NC4CCN(c5ccc(C#N)cn5)CC4)n3)ccn2n1` [Example 32, 6-(4-((5-chloro-2-((2-methyl-[1,2,4]triazolo[1,5-a]pyridin-7-yl)amino)pyrimidin-4-yl)amino)piperidin-1-yl)nicotinonitrile], for which the IC50 against TYK2 (h) worked out at 0.002 µM; against Aurora-A (h), 0.662 µM.

Consider `CC(O)Cn1cnc2cc(Nc3ncc(Cl)c(NC4CCN(c5ccc(C#N)cn5)CC4)n3)ccc21` (stereo not shown) [Example 61, 6-(4-((5-chloro-2-((1-(2-hydroxypropyl)-1H-benzo[d]imidazol-5-yl)amino)pyrimidin-4-yl)amino)piperidin-1-yl)nicotinonitrile], for which the IC50 at TYK2 (h) was 0.0009 µM; on Aurora-A (h), 0.113 µM; on Aurora-B (h), 0.05 µM; at FLT4 (h), 0.02 µM.

On to `CC(C)(O)Cc1nc2ccc(Nc3ncc(Cl)c(NC4CCN(c5ccc(C#N)cn5)CC4)n3)cn2n1` [Example 67, 6-(4-((5-chloro-2-((2-(2-hydroxy-2-methylpropyl)-[1,2,4]triazolo[1,5-a]pyridin-6-yl)amino)pyrimidin-4-yl)amino)piperidin-1-yl)nicotinonitrile], for which the IC50 against TYK2 (h) came to 0.008 µM; at Aurora-A (h), 0.987 µM; at Aurora-B (h), 0.793 µM; on FLT4 (h), 0.113 µM.

`CC(C)(O)Cn1nnc2cc(Nc3ncc(Cl)c(NC4CCN(c5ccc(C#N)cn5)CC4)n3)ccc21` [Example 69, 6-(4-((5-chloro-2-((1-(2-hydroxy-2-methylpropyl)-1H-benzo[d][1,2,3]triazol-5-yl)amino)pyrimidin-4-yl)amino)piperidin-1-yl)nicotinonitrile]: the IC50 on TYK2 (h) turned out to be 0.0007 µM; against Aurora-A (h) it was 0.04 µM; against Aurora-B (h), 0.045 µM; at FLT4 (h), 0.015 µM.

For the compound `CC(C)(O)Cc1nc2cc(Nc3ncc(Cl)c(NC4CCN(c5ccc(C#N)nn5)CC4)n3)ccn2n1` [Example 77, 6-(4-((5-chloro-2-((2-(2-hydroxy-2-methylpropyl)-[1,2,4]triazolo[1,5-a]pyridin-7-yl)amino)pyrimidin-4-yl)amino)piperidin-1-yl)pyridazine-3-carbonitrile], the IC50 on TYK2 (h) amounted to 0.009 µM; at Aurora-A (h) it was 0.699 µM; against Aurora-B (h) it was 0.132 µM; at FLT4 (h), 0.166 µM.

Take `CC(C)(O)Cc1nc2cc(Nc3ncc(Cl)c(NC4CCN(c5ccc(C#N)cn5)CC4)n3)ccn2n1` [Example 78, 6-(4-((5-chloro-2-((2-(2-hydroxy-2-methylpropyl)-[1,2,4]triazolo[1,5-a]pyridin-7-yl)amino)pyrimidin-4-yl)amino)piperidin-1-yl)nicotinonitrile]: the IC50 at TYK2 (h) is 0.005 µM; against Aurora-A (h), 0.561 µM; against Aurora-B (h) it was 0.185 µM; at FLT4 (h), 0.117 µM.

For the origin of these results see patent US10683297B2 (Sunshine Lake Pharma Co., Ltd., priority 2017, dated 2020).
